The values that follow come from ChEMBL document CHEMBL1201862, “PubChem BioAssay data set” (2004).

Active and inactive are the calls of the source.

Assay [1] addresses T1, RNA-binding protein pos-1 (Caenorhabditis elegans, UniProt G5EF15).
T1 sequence (G5EF15 whole entry): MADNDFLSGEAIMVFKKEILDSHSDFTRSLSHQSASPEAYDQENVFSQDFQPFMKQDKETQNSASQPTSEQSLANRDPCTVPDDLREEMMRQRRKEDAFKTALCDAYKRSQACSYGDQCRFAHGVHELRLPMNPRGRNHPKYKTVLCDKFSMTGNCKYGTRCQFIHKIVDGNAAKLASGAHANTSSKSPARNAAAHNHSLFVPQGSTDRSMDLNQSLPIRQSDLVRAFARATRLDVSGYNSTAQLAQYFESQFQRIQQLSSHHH
Description: inhibitors of POS-1/mex-3 RNA binding, dose response, biochemical, fluorescence polarization (AID 1964).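 Also: purified POS-1 fused to maltose binding protein made in E. coli; potency of compounds blocking POS-1 binding to fluorescent RNA.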 In general terms: In fluorescence polarisation assays a small probe gives low polarisation when free and higher when bound to something large.

Assay [2] deals with Glyceraldehyde-3-phosphate dehydrogenase (Homo sapiens, UniProt P04406).
The target in assay [3] is T2, Zinc finger protein mex-5 (Caenorhabditis elegans, UniProt Q9XUB2).
T2 sequence (Q9XUB2 whole entry): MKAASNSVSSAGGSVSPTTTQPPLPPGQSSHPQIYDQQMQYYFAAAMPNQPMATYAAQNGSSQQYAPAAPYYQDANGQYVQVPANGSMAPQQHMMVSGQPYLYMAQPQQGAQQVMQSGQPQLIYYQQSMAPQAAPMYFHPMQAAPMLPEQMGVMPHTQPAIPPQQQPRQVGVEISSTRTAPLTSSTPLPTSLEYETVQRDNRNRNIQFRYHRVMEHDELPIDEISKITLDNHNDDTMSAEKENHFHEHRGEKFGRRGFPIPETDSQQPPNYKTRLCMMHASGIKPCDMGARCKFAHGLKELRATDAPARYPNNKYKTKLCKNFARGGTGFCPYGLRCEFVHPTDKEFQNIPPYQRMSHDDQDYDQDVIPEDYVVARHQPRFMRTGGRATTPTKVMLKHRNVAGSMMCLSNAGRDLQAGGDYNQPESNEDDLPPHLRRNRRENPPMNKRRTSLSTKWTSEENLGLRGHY
The experiment in a line: MEX-5/TCR-2 RNA interaction inhibitors, dose response, biochemical, C. elegans, fluorescence polarization (AID 1960).

The target of assay [4] is Heat shock cognate 71 kDa protein (Homo sapiens, UniProt P11142). Description: In Vitro Hsc70 Dose Response Fluorescence Polarization Assay. [Related pubchem assays: 1072 ].
For assay [5], the target named is Heat shock 70 kDa protein 1A (Homo sapiens, UniProt P0DMV8). The experiment in a line: Hsp70 inhibitors, SAR follow-up, biochemical, fluorescence polarization (AID 1072).
Assay [6] deals with Potassium voltage-gated channel subfamily KQT member 2 (Rattus norvegicus, UniProt O88943). The experiment in a line: Mode of action assay - current amplitude concentration response for derivatives of ZTZ240, a potentiator of KCNQ2 potassium channels. [Related pubchem assays: 2258 (Summary assay for the KCNQ2 potentiators.), 2239 (Primary HTS assay for KCNQ2 potentiators with 305606 compounds tested, and 1644 are found to be active.)]. Format: functional.

Assay [7] deals with Streptococcus sp. 'group A'. The experiment in a line: growth inhibition of control SK(-) GAS strain, dose response, counter-screen for streptokinase expression inhibitor project, luminescence, kanamycin, BacTiterGlo, confirmation (AID 1900). Format: functional, organism-based. On the technique in general: The purpose of a counterscreen is to sort out artefacts and off-target activity.

Assay [8] concerns Streptococcus. The experiment in a line: Luminescence Microorganism-Based Dose Response Follow up to Identify Compounds Cytotoxic to Streptococcus. [Related pubchem assays: 1677 (Project Summary), 1915, 1914, 1902 (Retest at Dose), 1900 (Counter Screen), 1662 (Primary HTS)]. The assay is classed as functional, organism-based.
A further assay concerns the target T3, Streptokinase A (Streptococcus pyogenes serotype M1, UniProt P10520).
T3 sequence (P10520 whole entry): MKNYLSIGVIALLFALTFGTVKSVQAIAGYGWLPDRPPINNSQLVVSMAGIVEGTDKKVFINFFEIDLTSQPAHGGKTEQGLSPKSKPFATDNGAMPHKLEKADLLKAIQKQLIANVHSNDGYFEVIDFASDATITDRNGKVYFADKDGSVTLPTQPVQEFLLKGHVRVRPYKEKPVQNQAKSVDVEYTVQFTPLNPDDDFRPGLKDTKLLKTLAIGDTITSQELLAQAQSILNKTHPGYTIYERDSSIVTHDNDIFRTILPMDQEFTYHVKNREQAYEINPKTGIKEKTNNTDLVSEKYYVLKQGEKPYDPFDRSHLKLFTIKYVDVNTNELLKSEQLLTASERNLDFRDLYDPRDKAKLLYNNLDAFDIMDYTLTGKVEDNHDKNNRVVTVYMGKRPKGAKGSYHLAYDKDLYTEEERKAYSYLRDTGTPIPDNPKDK
Description: S. pyogenes streptokinase expression inhibitors, potency, dose response, plasminogen activation absorbance, OD405 (AID 1914).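 Also: secreted streptokinase activity via plasminogen activation per viability signal from cell pellet.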 Format: functional, Streptococcus pyogenes M1 GAS.

Assay [9] can be described thus: growth suppression of PTEN-null colon cells, dose response, cell-based, HCT116 PTEN knockout (AID 1047).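 Also: HCT116 colon tumor cells with PTEN knocked out; cells exposed to compound for 60 hours before readout; potency for loss of cell viability measured by luminescence.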 The assay is classed as functional.
The nature of assay [10]: growth suppression of beta-catenin-knockout colon cells, dose response, cell-based, HCT116, human colon tumor (AID 1045).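 Also: HCT116 colon tumor cells with beta catenin knocked out; cells exposed to compound for 60 hours.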 The assay is classed as functional.
Assay [11] concerns Streptococcus. Description: Group A Streptococcus viability loss, dose response, counter-screen for streptokinase expression inhibitor project, luminescence, BacTiterGlo (AID 1915).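 Also: potency for reduction of bacterial viability or growth.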 The assay is classed as functional, organism-based.
Assay [12] in a line: Luminescence Cell-Based Dose Retest to Confirm Inhibitors of Cancer Stem Cells. [Related pubchem assays (depositor defined):AID2717, AID2721]. Format: functional. To be noted: Homo sapiens.
The subject of a further assay is INS1. The experiment in a line: beta cell apoptosis inhibitors, cytokine rescue, dose response, luminescence, retest (AID 449756).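 Also: cell death triggered by IL-1 beta plus TNF-alpha plus IFN-gamma mixture; protective hits raise ATP signal compared with cytokine alone wells.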 Format: functional, cell-based. Conditions: Rattus norvegicus.
A short description of assay [13]: Counterscreen for IDE inhibitors: Luminescence-based cell-based high throughput dose response assay to identify compounds that are cytotoxic to HEK cells. [Related pubchem assays: 434962 (Primary screen (IDE inhibitors in singlicate)), 449730 (Counterscreen (Cytotoxicity in triplicate)), 435028 (Confirmation (IDE inhibitors in triplicate)) …. The assay is classed as functional. Conditions: HEK293.

The target of assay [14] is T4, Voltage-gated N-type calcium channel alpha-1B subunit/Amyloid beta A4 precursor protein-binding family A member 1 (Homo sapiens, UniProt Q00975+Q02410). The assay is classed as protein assay.
Assay [15] has as its target T4, Voltage-gated N-type calcium channel alpha-1B subunit/Amyloid beta A4 precursor protein-binding family A member 1. Format: protein assay. This is another data set of the same source.
For another assay, the target named is Insulin-degrading enzyme (Homo sapiens, UniProt P14735). The experiment in a line: Dose Response: Fluorescence polarization-based cell-based high throughput dose response assay for inhibitors of insulin-degrading enzyme (IDE). [Related pubchem assays: 434962 (Primary screen (IDE inhibitors in singlicate)), 449730 (Counterscreen (Cytotoxicity in triplicate)), 435028 (Confirmation (IDE inhibitors in triplicate)), 434984 (Summary …. The assay is classed as functional.

The subject of a further assay is HeLa. The experiment in a line: Cytotoxicity counterscreen assay for transcriptional activators of heat shock protein 70 (Hsp70). [Related pubchem assays: 1203, 1252 ]. The assay is classed as functional. Conditions: Homo sapiens.
Assay [16] deals with BJ. Description: cytotoxicity toward BJ-TERT fibroblasts, dose response, cell-based, RAS-independent, luminescence (AID 1933). The assay is classed as functional. To be noted: Homo sapiens.
The next assay deals with Galanin receptor type 2 (Homo sapiens, UniProt O43603). Description: Dose Response cell-based high-throughput screening assay to identify antagonists of galanin receptor 2 (GALR2). [Related pubchem assays: 828, 866 ]. The assay is classed as functional.
For assay [17], the system named is BJ. Description: cells. Format: functional, cell-based. Conditions: Homo sapiens.
The nature of assay [18]: inhibitors of intracellular T. cruzi replication, confirmation, NIH3T3 host cells, beta-gal luminescence (AID 2044).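 Also: intracellular parasites grown in NIH/3T3 mouse fibroblasts as host cells; luminescent beta-galactosidase reporter signal from transgenic T. cruzi replicating inside host cells; inhibitors lower the luminescence signal.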 The assay is classed as functional, cell-based.
Assay [19] is described as follows: microbe, parasite or virus in culture. Conditions: Mycobacterium tuberculosis. The assay is classed as functional.
A short description of assay [20]: cytotoxicity toward NIH3T3 fibroblasts, dose response, counter-screen, cell-based, ATP luminescence, mouse fibroblasts (AID 2010).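 Also: cells exposed to compound for about 90 hours before reading.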 The assay is classed as functional.
In assay [21] the test system is BJ. Description: cytotoxicity toward BJ-TERT-LT-ST fibroblasts, dose response, cell-based, RAS-independent, luminescence (AID 1935).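 Also: BJ fibroblasts immortalized with TERT plus LT and ST oncogenes.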 The assay is classed as functional. Conditions: Homo sapiens.
Assay [22] in a line: cytotoxicity toward DRD oncogenic fibroblasts, dose response, cell-based, non-viral oncogenic, luminescence (AID 1934). Format: functional. To be noted: Homo sapiens.
Assay [23] can be described thus: Shn3 3'UTR reporter inhibitors, dose response, cell-based, Clone20 osteoblasts, firefly luciferase, cherry-picked (AID 624132).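 Also: firefly luciferase luminescence from reporter carrying the Shn3 3'UTR in osteoblasts.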 The assay is classed as functional.
Assay [24] can be described thus: HepG2 cell cytotoxicity, dose response, cytotoxicity control for Shn3 inhibitor project, CellTiter-Glo, cherry-picked (AID 624134). The assay is classed as functional, cell-based. Background: Cellular ATP, detected with luciferase, serves as a proxy for viable cell number.
Assay [25] is described as follows: control 3'UTR Renilla luciferase suppression, dose response, counter-screen for Shn3 inhibitor project, cell-based, Clone20-Shn3RL, cherry-picked (AID 624133). The assay is classed as functional.
Assay [26] in a line: NIH-3T3 fibroblast cytotoxicity, dose response, cytotoxicity control, cell-based, fluorescence, Alamar Blue, secondary assay (AID 2327).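 Also: NIH-3T3 mouse fibroblasts cultured with fluconazole at 8 µg/mL.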 Format: functional.
A short description of assay [27]: C. albicans growth with fluconazole, confirmation, fluorescence, retest (AID 2467). The assay is classed as functional, cell-based.
Assay [28] deals with Bifunctional protein GlmU (Mycobacterium tuberculosis, UniProt P9WMN3). Description: Inhibitors of Mycobacterial Glucosamine-1-phosphate acetyl transferase (GlmU). Secondary screen. The arrangement: species or system Mycobacterium tuberculosis H37Rv.
The nature of assay [29]: enhancers of respiration in Yfh1-depleted yeast, dose response, Friedreich's ataxia, plus single-dose screen (AID 1465).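 Also: yeast depleted of Yfh1p frataxin homolog grown on glycerol needing respiration; WST-1 tetrazolium dye reduction as measure of cellular dehydrogenase metabolic activity.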 The assay is classed as functional.
Assay [30] addresses Induced myeloid leukemia cell differentiation protein Mcl-1 (Homo sapiens, UniProt Q07820). The assay is classed as functional.

As usually defined, the EC50 is the midpoint of the concentration-response curve. As usually defined, the IC50 is the concentration at which inhibition is half-maximal. As usually defined, the AC50 is the midpoint of the concentration-response curve, whichever way the signal moves.

T4 sequence (Q00975 whole entry): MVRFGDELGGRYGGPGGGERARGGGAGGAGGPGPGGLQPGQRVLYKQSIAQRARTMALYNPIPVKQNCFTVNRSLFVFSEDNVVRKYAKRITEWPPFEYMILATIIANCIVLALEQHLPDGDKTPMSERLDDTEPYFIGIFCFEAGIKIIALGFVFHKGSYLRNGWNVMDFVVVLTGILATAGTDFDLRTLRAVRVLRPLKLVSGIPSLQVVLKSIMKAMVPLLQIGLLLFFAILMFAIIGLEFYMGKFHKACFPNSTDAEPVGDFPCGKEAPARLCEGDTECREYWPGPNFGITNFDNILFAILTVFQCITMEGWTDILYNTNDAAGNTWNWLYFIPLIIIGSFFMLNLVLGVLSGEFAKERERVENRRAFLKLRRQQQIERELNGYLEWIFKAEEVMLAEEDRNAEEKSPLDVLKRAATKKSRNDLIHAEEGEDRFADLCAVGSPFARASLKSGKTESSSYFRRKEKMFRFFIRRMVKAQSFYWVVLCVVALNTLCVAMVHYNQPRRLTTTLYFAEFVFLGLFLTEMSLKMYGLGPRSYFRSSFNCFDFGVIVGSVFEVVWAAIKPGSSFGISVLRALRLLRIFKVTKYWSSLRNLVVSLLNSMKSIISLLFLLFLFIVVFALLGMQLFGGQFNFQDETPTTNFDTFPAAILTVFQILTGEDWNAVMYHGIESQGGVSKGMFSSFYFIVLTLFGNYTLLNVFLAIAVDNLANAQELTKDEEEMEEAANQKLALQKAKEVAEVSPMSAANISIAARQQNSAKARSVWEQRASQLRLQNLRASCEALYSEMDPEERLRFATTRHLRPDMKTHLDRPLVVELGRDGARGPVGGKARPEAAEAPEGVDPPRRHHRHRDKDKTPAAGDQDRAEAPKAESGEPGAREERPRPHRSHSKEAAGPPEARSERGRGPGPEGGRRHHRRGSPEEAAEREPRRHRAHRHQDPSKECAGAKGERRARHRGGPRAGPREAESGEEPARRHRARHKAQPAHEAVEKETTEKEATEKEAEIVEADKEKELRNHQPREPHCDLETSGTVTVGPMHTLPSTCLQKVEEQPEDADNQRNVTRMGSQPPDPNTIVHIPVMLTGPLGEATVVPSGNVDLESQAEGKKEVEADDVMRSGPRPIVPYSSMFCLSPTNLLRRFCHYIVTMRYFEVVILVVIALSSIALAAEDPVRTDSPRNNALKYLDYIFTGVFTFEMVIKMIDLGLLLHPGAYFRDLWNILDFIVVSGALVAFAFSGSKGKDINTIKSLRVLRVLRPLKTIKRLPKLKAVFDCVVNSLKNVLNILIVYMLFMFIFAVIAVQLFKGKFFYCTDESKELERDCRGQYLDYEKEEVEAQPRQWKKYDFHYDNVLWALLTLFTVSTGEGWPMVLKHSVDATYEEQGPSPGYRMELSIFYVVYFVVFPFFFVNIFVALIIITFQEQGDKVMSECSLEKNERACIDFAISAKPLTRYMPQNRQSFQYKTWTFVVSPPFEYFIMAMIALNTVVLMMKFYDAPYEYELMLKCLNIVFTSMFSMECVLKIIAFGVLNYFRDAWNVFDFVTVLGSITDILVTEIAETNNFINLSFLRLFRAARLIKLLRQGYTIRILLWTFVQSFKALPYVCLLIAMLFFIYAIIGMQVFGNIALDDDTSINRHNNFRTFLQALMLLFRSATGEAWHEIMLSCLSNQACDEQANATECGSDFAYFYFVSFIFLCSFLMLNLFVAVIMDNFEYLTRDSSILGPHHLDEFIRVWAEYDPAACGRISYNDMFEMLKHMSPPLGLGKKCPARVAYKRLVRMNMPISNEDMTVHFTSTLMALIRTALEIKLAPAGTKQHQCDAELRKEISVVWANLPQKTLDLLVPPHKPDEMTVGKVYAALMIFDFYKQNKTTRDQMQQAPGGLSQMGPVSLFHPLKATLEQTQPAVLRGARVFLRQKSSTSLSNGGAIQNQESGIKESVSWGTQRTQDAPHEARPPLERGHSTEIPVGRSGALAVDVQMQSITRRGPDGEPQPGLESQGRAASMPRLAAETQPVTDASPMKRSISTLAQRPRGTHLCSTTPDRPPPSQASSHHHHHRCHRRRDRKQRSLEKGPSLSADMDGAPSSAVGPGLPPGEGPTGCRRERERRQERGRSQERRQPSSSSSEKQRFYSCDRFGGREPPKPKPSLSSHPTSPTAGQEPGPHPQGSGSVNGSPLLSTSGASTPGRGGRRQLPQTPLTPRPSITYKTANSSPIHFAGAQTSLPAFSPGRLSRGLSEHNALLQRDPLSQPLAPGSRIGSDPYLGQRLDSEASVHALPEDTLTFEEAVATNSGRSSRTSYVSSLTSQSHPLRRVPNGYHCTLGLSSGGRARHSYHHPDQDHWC
T4 sequence (Q02410 whole entry): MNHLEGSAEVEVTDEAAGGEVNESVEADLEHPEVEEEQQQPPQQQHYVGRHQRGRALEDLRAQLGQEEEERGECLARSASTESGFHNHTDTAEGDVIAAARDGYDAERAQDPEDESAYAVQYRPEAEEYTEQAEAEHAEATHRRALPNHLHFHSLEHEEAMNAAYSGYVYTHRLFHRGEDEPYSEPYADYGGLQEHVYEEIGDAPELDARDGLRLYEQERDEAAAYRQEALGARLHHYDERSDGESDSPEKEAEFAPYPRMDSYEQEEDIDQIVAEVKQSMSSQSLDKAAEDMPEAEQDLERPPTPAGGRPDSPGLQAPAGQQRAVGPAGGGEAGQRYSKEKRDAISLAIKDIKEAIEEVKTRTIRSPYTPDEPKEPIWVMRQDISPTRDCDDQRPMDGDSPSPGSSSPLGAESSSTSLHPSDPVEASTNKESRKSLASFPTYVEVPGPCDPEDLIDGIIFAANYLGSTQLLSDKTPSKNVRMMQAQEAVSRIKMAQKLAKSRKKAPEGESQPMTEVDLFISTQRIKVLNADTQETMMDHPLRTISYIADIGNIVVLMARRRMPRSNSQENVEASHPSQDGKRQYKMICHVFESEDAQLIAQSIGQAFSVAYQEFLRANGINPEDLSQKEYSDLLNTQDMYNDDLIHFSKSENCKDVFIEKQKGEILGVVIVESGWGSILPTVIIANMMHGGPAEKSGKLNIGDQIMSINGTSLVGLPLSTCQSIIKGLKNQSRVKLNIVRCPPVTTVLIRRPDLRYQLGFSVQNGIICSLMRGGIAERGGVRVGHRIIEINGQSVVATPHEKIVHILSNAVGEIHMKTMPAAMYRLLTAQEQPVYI
Sequence of Heat shock cognate 71 kDa protein (P11142 whole entry): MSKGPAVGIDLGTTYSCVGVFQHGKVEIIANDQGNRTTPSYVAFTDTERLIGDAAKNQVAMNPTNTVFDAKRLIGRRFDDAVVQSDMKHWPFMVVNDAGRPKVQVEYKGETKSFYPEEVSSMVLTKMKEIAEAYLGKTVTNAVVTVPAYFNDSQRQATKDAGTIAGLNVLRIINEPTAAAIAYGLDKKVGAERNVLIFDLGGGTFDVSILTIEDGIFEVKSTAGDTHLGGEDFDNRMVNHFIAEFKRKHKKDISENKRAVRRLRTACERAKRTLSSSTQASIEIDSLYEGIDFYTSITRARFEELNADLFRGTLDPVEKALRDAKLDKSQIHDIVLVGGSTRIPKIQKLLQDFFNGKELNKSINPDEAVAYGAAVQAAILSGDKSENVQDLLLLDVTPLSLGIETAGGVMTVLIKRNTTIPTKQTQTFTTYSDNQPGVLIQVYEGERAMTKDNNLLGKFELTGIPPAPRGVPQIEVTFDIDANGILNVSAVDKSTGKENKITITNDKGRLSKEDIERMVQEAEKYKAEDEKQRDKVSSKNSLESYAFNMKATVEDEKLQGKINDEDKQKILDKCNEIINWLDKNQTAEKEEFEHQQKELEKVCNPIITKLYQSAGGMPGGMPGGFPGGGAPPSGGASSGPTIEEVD
Sequence of Induced myeloid leukemia cell differentiation protein Mcl-1 (Q07820 whole entry): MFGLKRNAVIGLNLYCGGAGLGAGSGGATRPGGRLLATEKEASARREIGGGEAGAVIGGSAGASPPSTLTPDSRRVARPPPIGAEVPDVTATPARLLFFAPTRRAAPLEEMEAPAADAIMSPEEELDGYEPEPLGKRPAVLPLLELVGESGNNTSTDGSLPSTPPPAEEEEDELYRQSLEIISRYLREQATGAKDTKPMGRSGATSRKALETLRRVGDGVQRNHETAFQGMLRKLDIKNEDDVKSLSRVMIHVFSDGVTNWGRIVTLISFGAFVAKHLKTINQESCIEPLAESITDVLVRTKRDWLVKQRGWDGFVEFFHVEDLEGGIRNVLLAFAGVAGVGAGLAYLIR
Sequence of Bifunctional protein GlmU (P9WMN3 whole entry): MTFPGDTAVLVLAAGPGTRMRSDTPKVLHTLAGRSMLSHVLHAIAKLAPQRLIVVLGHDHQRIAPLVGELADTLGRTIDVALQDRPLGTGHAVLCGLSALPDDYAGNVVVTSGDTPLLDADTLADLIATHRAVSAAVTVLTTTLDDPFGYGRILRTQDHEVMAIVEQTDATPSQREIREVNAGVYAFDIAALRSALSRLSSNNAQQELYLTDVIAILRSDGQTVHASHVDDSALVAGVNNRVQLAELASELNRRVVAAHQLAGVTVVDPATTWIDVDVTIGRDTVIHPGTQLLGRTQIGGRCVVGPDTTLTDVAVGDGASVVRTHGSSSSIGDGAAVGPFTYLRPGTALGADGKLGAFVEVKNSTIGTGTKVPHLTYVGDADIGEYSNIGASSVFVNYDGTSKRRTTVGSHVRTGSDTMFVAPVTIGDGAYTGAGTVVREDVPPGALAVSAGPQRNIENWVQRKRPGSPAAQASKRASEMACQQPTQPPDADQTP
Sequence of Galanin receptor type 2 (O43603 whole entry): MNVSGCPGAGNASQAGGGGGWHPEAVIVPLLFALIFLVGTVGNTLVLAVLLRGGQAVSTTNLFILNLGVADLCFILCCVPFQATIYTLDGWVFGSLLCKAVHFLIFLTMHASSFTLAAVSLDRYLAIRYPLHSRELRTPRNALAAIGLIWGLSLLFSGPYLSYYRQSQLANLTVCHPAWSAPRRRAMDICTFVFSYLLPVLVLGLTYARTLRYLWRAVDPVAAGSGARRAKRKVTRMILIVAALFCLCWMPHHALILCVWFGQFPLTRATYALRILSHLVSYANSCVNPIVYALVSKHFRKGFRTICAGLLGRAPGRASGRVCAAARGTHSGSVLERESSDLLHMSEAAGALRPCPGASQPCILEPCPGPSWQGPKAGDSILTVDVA

Consider `O=C(O)C1Nc2c(C(F)(F)F)ccc(Cl)c2C2C=CCC12` (configuration not stated), for which the EC50 in assay [1] was 110 µM (active); in assay [3] it was 61.5 µM (active). Also, the IC50 in [2], in assay [4] and in assay [5] was > 100 µM (not active) throughout.
Take `O=C(Nc1ccc(Br)nc1)c1cccc(F)c1`: the EC50 in assay [6] is 1.65 µM (active).
Take `O=C(Nc1cc(S(=O)(=O)Nc2ccc(Cl)cc2)ccc1N1CCCCC1)c1ccc(F)cc1`: the EC50 was 10.2 µM (active) in assay [7]; 150 µM (active) in the assay with Streptococcus [8]; 5.17 µM (active) at Streptokinase A; 29.4 µM (active) in assay [9]; 21 µM (active) in assay [10]; > 150 µM (not active) with Streptococcus [11]. Also, the values for the AC50 (in assay [12]; in the assay with INS1) were 4.98 µM (active) and 8.05 µM (active), respectively.
For the compound `Cc1cc(C)c2c(=O)n(CC(=O)NCCCN3CCOCC3)sc2n1`, the IC50 in assay [13] is 21.2 µM (not active); in assay [14], 10.8 µM (active); in [15], 46 µM (active); on Insulin-degrading enzyme, 7.16 µM (active).
Regarding `O=C(/C=C/Sc1nc[nH]n1)c1ccc(Cl)cc1`, the values for the CC50 (in the assay with HeLa; in [19]) were > 3.67 µM (not active) and 25.4 µM (active), respectively. For the same compound, the EC50 is 4.19 µM (active) in the assay on BJ [16]; 6.44 µM (inconclusive) in the assay on BJ [17]; 1.99 µM (active) in [18]; 3.28 µM (active) in assay [20]; 12.3 µM (active) with BJ [21]; 5.81 µM (active) in assay [22]. Further, at Galanin receptor type 2, the IC50 is given as 10.9 µM (not active). Also, the values for the half-maximal activity concentration (AC50) in assay [23], in assay [24] and in assay [25] were 9.76 µM (active), 31.2 µM (active) and 14.4 µM (active), respectively.
On to `CN(C)S(=O)(=O)c1cccc(NC(=S)N/N=C/c2ccc(O)c(O)c2O)c1`, for which the EC50 was > 150 µM (inactive) in assay [26]; 15 µM (active) in assay [1]; 3.48 µM (active) in assay [3]; > 38 µM (not active) in [27]; > 100 µM (active) in assay [29]. Further, the results for the IC50 in [28] and in [30] were 68.4 µM (active) and 1.17 µM (active), respectively.
